Measurements reported in PMC11594716, “Rhodanine–Piperazine Hybrids as Potential VEGFR, EGFR, and HER2 Targeting Anti-Breast Cancer Agents” (International Journal of Molecular Sciences, 2024).

Tests used:
Format in all cases: cell-based, human
T47D cell line = experiment: MTT cytotoxicity assay, T47D breast cancer cells; conditions: for IC50: MTT, 48 h incubation; for Selectivity index SI T47D: IC50(BJ)/IC50(T47D)
Description: (§1) Cytotoxicity of tested compounds was evaluated against breast cancer cell lines (MDA-MB-468, MDA-MB-231, MCF-7, and T47D) and normal human fibroblast BJ cell line as a control. All tested cell lines were obtained from the American Type Culture Collection (ATCC, Manassas, VA, USA). MDA-MB-468 and MDA-MB-231 were cultured in F12-K medium (Corning, New York City, NY, USA), MCF-7 and BJ in EMEM medium (Corning, New York City, NY, USA), and T47D in RPMI medium (Corning, New York City, NY, USA). All of these culture media were supplemented with 10% heat-inactivated FBS (PAN-Biotech, Aidenbach, Germany) and antibiotics (100 U/mL of penicillin, 100 μg/mL of streptomycin, and 0.25 μg/mL amphotericin B, respectively; Sigma-Aldrich, St. Louis, MO, USA) in a humidified 5% CO2 atmosphere at 37 °C. The cells were used exclusively for 10 passages.
(§2) The cells were seeded in 96-well plates at a concentration of 5 × 10^4 cells/mL and incubated at 37 °C with 5% CO2 air. When 70–80% culture confluence was achieved the tested compounds were added. […] The cell viability assessment was measured using the MTT assay (Invitrogen, Waltham, MA, USA) based on the ability of living cells to reduce […] tetrazolium salt, by cellular dehydrogenases, to water-insoluble purple formazan crystals. MTT solution (4 mg/mL) was added to the culture after 48 h of incubation with the tested compounds. Following 4 h of incubation, the medium with MTT salt was removed and the obtained crystals were dissolved in DMSO. The solution absorbency was measured at 570 nm using a PowerWave™ microplate spectrophotometer (Bio-Tek Instruments, Winooski, VT, USA). Each experiment was performed twice with measurement in triplicate. The IC50 values were determined using the AAT Bioquest IC50 calculator with a four parameter logistic regression model (AAT Bioquest, Inc. Pleasanton, CA, USA (14 April 2024). Quest Graph™ IC50 Calculator. AAT Bioquest. https://www.aatbio.com/tools/ic50-calculator, accessed on 12 October 2024).

MDA-MB-468 cell line = experiment: MTT cytotoxicity assay, MDA-MB-468 breast cancer cells; conditions: for IC50: MTT, 48 h incubation; for Selectivity index SI MDA-MB-468: IC50(BJ)/IC50(MDA-MB-468)
Description: as §1, §2

MDA-MB-231 cell line = experiment: MTT cytotoxicity assay, MDA-MB-231 breast cancer cells; conditions: for IC50: MTT, 48 h incubation; for Selectivity index SI MDA-MB-231: IC50(BJ)/IC50(MDA-MB-231)
Description: as §1, §2

MCF-7 cell line = experiment: MTT cytotoxicity assay, MCF-7 breast cancer cells; conditions: for IC50: MTT, 48 h incubation; for Selectivity index SI MCF-7: IC50(BJ)/IC50(MCF-7)
Description: as §1, §2

Molecule	IC50 (T47D cell line; Homo sapiens, T47D) [µM]	Selectivity index SI T47D (T47D cell line)	IC50 (MDA-MB-468 cell line; Homo sapiens, MDA-MB-468) [µM]	Selectivity index SI MDA-MB-468 (MDA-MB-468 cell line)	IC50 (MDA-MB-231 cell line; Homo sapiens, MDA-MB-231) [µM]	Selectivity index SI MDA-MB-231 (MDA-MB-231 cell line)	IC50 (MCF-7 cell line; Homo sapiens, MCF7) [µM]	Selectivity index SI MCF-7 (MCF-7 cell line)	IC50 (T47D cell line) [µM]	IC50 (MDA-MB-468 cell line) [µM]	IC50 (MDA-MB-231 cell line) [µM]	IC50 (MCF-7 cell line) [µM]
COc1cccc(N2CCN(C=C3SC(=S)N(c4ccccc4)C3=O)CC2)c1 [Compound 17, 5-{[4-(3-Methoxyphenyl)piperazin-1-yl]methylidene}-3-phenyl-2-thioxo-1,3-thiazolidin-4-one]	> 200	1	58	3.45	118	1.69	169	1.18	–	–	–	–
O=C1C(=CN2CCN(c3cccc(F)c3)CC2)SC(=S)N1c1ccccc1 [Compound 16, 5-{[4-(3-Fluorophenyl)piperazin-1-yl]methylidene}-3-phenyl-2-thioxo-1,3-thiazolidin-4-one]	> 200	1	> 200	1	179	1.12	> 200	1	–	–	–	–
O=C1NC(=S)SC1=CN1CCN(c2ccc(Cl)cc2)CC1 [Compound 5, 5-{[4-(4-Chlorophenyl)piperazin-1-yl]methylidene}-2-thioxo-1,3-thiazolidin-4-one]	> 200	1	168	1.19	> 200	1	> 200	1	–	–	–	–
5-{[4-(3-Fluoromethylphenyl)piperazin-1-yl]methylidene}-2-thioxo-1,3-thiazolidin-4-one [Compound 9]	–	1	–	3.17	–	1	–	2.74	> 200	63	> 200	73
O=C1NC(=S)SC1=CN1CCN(c2cccc(Cl)c2)CC1 [Compound 7, 5-{[4-(3-Chlorophenyl)piperazin-1-yl]methylidene}-2-thioxo-1,3-thiazolidin-4-one]	> 200	1	95	2.1	157	1.27	> 200	1	–	–	–	–
COc1cccc(N2CCN(C=C3SC(=S)NC3=O)CC2)c1 [Compound 11, 5-{[4-(3-Methoxyphenyl)piperazin-1-yl]methylidene}-2-thioxo-1,3-thiazolidin-4-one]	> 200	1	92	2.17	160	1.25	> 200	1	–	–	–	–
O=C1C(=CN2CCN(c3cccc(Cl)c3)CC2)SC(=S)N1c1ccccc1 [Compound 14, 5-{[4-(3-Chlorophenyl)piperazin-1-yl]methylidene}-3-phenyl-2-thioxo-1,3-thiazolidin-4-one]	> 200	1	> 200	1	> 200	1	> 200	1	–	–	–	–
O=C1NC(=S)SC1=CN1CCN(C(c2ccc(F)cc2)c2ccc(F)cc2)CC1 [Compound 12, 5-({4-[Bis(4-fluorophenyl)methyl]piperazin-1-yl}methylidene)-2-thioxo-1,3-thiazolidin-4-one]	> 200	1	37	5.41	147	1.36	36	5.56	–	–	–	–
O=C1NC(=S)SC1=CN1CCN(c2ccc([N+](=O)[O-])cc2)CC1 [Compound 6, 5-{[4-(4-Nitrophenyl)piperazin-1-yl]methylidene}-2-thioxo-1,3-thiazolidin-4-one]	186	1.08	54	3.7	92	2.17	> 200	1	–	–	–	–
O=C1C(=CN2CCN(C(c3ccc(F)cc3)c3ccc(F)cc3)CC2)SC(=S)N1c1ccccc1 [Compound 15, 5-({4-[Bis(4-fluorophenyl)methyl]piperazin-1-yl}methylidene)-3-phenyl-2-thioxo-1,3-thiazolidin-4-one]	189	1.06	47	4.26	76	2.63	45	4.44	–	–	–	–
O=C1NC(=S)SC1=CN1CCN(c2cccc(F)c2)CC1 [Compound 8, 5-{[4-(3-Fluorophenyl)piperazin-1-yl]methylidene}-2-thioxo-1,3-thiazolidin-4-one]	> 200	1	> 200	1	155	1.29	> 200	1	–	–	–	–
O=C1NC(=S)SC1=CN1CCN(c2ccc(Cl)c(Cl)c2)CC1 [Compound 10, 5-{[4-(3,4-Dichlorophenyl)piperazin-1-yl]methylidene}-2-thioxo-1,3-thiazolidin-4-one]	91	2.2	55	3.63	105	1.90	31	6.45	–	–	–	–
O=C1C(=CN2CCN(c3ccc(Cl)cc3)CC2)SC(=S)N1c1ccccc1 [Compound 13, 5-{[4-(4-Chlorophenyl)piperazin-1-yl]methylidene}-3-phenyl-2-thioxo-1,3-thiazolidin-4-one]	> 200	1	179	1.12	145	1.38	67	2.99	–	–	–	–
